Counter-ions that a name gives are not always drawn. Like-named read-outs stand apart in the source and are kept apart here.
Legend:
[1] = molecular target: T1, human AT1 receptor (Homo sapiens, UniProt P30556); assay: Binding assay using human AT1 receptor-expressing CHO-K1 cell membrane fraction ([125I]-angiotensin II); conditions: 22.5 pM [125I]-angiotensin II, 9 μg AT1 membrane, 1 hr room temperature; read-out: AT1 receptor binding inhibitory action (IC50 (nM))
T1 construct: expressed in transfected cells; host or cells: CHO-K1
T1 sequence (P30556 1-359): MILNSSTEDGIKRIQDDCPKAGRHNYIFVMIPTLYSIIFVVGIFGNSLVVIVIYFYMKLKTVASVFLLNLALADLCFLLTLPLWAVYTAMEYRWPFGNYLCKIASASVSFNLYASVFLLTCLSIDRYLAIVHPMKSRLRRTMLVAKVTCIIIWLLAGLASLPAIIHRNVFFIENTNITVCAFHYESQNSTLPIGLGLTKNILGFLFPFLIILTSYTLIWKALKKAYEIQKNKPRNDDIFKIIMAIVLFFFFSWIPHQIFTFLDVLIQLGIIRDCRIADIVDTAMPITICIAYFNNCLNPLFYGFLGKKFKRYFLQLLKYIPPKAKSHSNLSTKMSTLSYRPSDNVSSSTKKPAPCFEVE
How it was run: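 Radioligand displacement: test compound competed with [125I]-angiotensin II (22.5 pM) on stable CHO-K1 AT1 membrane fraction, 1 hr, room temperature, Tris pH 7.4/MgCl2 buffer ± 0.3 mg/mL BSA. Filtration then scintillation counting; 1 μM CV-11974 defined nonspecific binding. Values are IC50s.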

[2] = molecular target: T2, PPARγ (Homo sapiens, UniProt P37231); assay: Evaluation of PPARγ activating action (luciferase reporter in PPARγ:RXRα:4ERPP/CHO-K1 cells); type: cell-based; conditions: CHO-K1, 24 h, read-out: PPARγ activating action (activation % (10^−6 M))
T2 construct: expressed in transfected cells; host or cells: CHO-K1
T2 sequence (P37231 1-477 isoform P37231-2): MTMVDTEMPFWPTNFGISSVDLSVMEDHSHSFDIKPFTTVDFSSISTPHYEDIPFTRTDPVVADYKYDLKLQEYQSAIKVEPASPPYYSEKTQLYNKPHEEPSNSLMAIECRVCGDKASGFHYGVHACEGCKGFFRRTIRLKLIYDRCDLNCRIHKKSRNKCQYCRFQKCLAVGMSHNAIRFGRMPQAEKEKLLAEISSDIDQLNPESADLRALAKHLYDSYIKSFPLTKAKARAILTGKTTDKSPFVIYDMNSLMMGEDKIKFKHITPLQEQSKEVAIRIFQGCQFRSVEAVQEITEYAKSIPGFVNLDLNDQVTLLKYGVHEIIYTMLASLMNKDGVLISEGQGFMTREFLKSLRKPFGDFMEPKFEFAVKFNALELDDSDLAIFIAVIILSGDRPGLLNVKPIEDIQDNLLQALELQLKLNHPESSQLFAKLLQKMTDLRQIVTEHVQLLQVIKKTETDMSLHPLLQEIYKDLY
T2 sequence (P19793 1-462 partner): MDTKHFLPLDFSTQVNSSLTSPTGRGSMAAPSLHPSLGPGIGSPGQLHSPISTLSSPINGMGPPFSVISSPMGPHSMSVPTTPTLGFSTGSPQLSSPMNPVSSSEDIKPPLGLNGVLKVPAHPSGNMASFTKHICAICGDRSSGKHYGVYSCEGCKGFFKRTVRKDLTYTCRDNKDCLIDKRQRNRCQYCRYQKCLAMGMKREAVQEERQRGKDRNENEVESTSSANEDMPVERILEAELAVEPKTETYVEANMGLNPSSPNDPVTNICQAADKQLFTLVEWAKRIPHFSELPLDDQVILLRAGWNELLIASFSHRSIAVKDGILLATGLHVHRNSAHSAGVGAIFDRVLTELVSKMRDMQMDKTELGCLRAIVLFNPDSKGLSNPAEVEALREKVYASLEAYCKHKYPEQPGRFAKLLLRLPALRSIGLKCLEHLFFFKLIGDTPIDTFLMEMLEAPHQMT
How it was run: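 Activity is expressed as percent, where vehicle gives 0% and 1 μM compound X gives 100%, based on luciferase luminescence. Reporter CHO-K1 cells co-expressing PPARγ:RXRα with a 4ERPP-driven luciferase were incubated with test compound for one day at 37 °C in medium with 0.1% fatty acid-free BSA.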

[3] = test compound 10^−6 M, luciferase activity relative to control compound X (1 μM) = 100%, non-administration group = 0%

Structure (SMILES)	IC50 [1]	activation at 1 µM [2, 3]	activation at 1 µM [2]
CCCCc1nc(C2CC2)n(-c2ccccc2)c(=O)c1Cc1ccc(-c2ccccc2-c2noc(=O)[nH]2)cc1 [Example 310, 6-butyl-2-cyclopropyl-5-{[2′-(5-oxo-4,5-dihydro-1,2,4-oxadiazol-3-yl)biphenyl-4-yl]methyl}-3-phenylpyrimidin-4(3H)-one potassium salt]	1.9 nM	–	27.1%
CCCc1nc(CC)n(-c2ccc3c(c2)CCO3)c(=O)c1Cc1ccc(-c2ccccc2-c2noc(O)n2)cc1 [Example 311, 3-(2,3-dihydro-1-benzofuran-5-yl)-2-ethyl-5-{[2′-(5-oxo-4,5-dihydro-1,2,4-oxadiazol-3-yl)biphenyl-4-yl]methyl}-6-propylpyrimidin-4(3H)-one potassium salt]	1.6 nM	–	38.1%
CCCc1nc(CC)n(-c2ccc3c(c2)CC(C)O3)c(=O)c1Cc1ccc(-c2ccccc2-c2noc(O)n2)cc1 (centres unmarked) [Example 312, 2-ethyl-3-(2-methyl-2,3-dihydro-1-benzofuran-5-yl)-5-{[2′-(5-oxo-4,5-dihydro-1,2,4-oxadiazol-3-yl)biphenyl-4-yl]methyl}-6-propylpyrimidin-4(3H)-one potassium salt]	1.6 nM	–	50.3%
CCCc1nc(CC)n(-c2ccc(OC)cc2)c(=O)c1Cc1ccc(-c2ccccc2-c2noc(O)n2)cc1 [Example 313, 2-ethyl-3-(4-methoxyphenyl)-5-{[2′-(5-oxo-4,5-dihydro-1,2,4-oxadiazol-3-yl)biphenyl-4-yl]methyl}-6-propylpyrimidin-4(3H)-one potassium salt]	1.5 nM	–	31%
CCCc1nc(C)n(-c2ccc(OC3CCC3)c(F)c2)c(=O)c1Cc1ccc(-c2ccccc2-c2noc(=O)[nH]2)cc1 [Example 318, 3-[4-(cyclobutyloxy)-3-fluorophenyl]-2-methyl-5-{[2′-(5-oxo-4,5-dihydro-1,2,4-oxadiazol-3-yl)biphenyl-4-yl]methyl}-6-propylpyrimidin-4(3H)-one]	1.8 nM	19.2%	–
CCCc1nc(C)n(-c2ccc(OC3CCCC3)cc2)c(=O)c1Cc1ccc(-c2ccccc2-c2noc(=O)[nH]2)cc1 [Example 319, 3-[4-(cyclopentyloxy)phenyl]-2-methyl-5-{[2′-(5-oxo-4,5-dihydro-1,2,4-oxadiazol-3-yl)biphenyl-4-yl]methyl}-6-propylpyrimidin-4(3H)-one]	1.8 nM	17.2%	–

Second part, led by results:

IC50 [1]	activation at 1 µM [2, 3]	Structure (SMILES)	activation at 1 µM [2]
1.8 nM	40.9%	CCCc1nc(C)c(Cc2ccccc2)c(=O)n1Cc1ccc(-c2ccccc2-c2noc(=O)[nH]2)cc1 [Example 287, 5-benzyl-6-methyl-3-{[2′-(5-oxo-4,5-dihydro-1,2,4-oxadiazol-3-yl)biphenyl-4-yl]methyl}-2-propylpyrimidin-4(3H)-one]	–
1.8 nM	28.2%	CCCc1nc(C)n(-c2ccc(OC(C)COC)cc2)c(=O)c1Cc1ccc(-c2ccccc2-c2noc(=O)[nH]2)cc1 (centres unmarked) [Example 293, 3-[4-(2-methoxy-1-methylethoxy)phenyl]-2-methyl-5-{[2′-(5-oxo-4,5-dihydro-1,2,4-oxadiazol-3-yl)biphenyl-4-yl]methyl}-6-propylpyrimidin-4(3H)-one]	–
1.8 nM	47.1%	CCCCc1nc(C)n(CCCC)c(=O)c1Cc1ccc(-c2ccccc2-c2noc(=O)[nH]2)cc1 [Example 294, 3,6-dibutyl-2-methyl-5-{[2′-(5-oxo-4,5-dihydro-1,2,4-oxadiazol-3-yl)biphenyl-4-yl]methyl}pyrimidin-4(3H)-one]	–
2.1 nM	20%	CCCc1nc(C)n(C=C(C)C)c(=O)c1Cc1ccc(-c2ccccc2-c2noc(=O)[nH]2)cc1 [Example 323, 2-methyl-3-(2-methylprop-1-en-1-yl)-5-{[2′-(5-oxo-4,5-dihydro-1,2,4-oxadiazol-3-yl)biphenyl-4-yl]methyl}-6-propylpyrimidin-4(3H)-one]	–

From patent publication US20100056526A1, “HETEROMONOCYCLIC COMPOUND AND USE THEREOF” (Takeda Pharmaceutical Company Limited, priority 2006, published 2010)
